Laboratory results reported in patent US20260240810A1, “COMPOSITIONS AND METHODS FOR REDUCING ADVERSE SIDE EFFECTS IN CANCER TREATMENT” (priority 2022, published 2026).

Assay: PREVLAR trial: adverse events
Format: in vivo, human
Source text: Of potential significance for OM, decreased rates of several pathognomonic toxicities were seen (see Table 4).
• CTCAEv.4 are a set of criteria for the standardized classification of AEs of drugs used in cancer therapy.

[1] = Arm 1: RRx-001 Pre-treatment + SOC Chemoradiation (N = 12)
[2] = Arm 1: RRx-001 pretreatment + SOC chemoradiation
[3] = Arm 2: RRx-001 Pre-treatment + 2 Concurrent Doses + SOC Chemoradiation (N = 11)
[4] = Arm 2: RRx-001 pretreatment + 2 concurrent doses + SOC chemoradiation
[5] = Arm 3: RRx-001 Pre-treatment + 6 Concurrent Doses + SOC Chemoradiation (N = 13)
[6] = Arm 3: RRx-001 pretreatment + 6 concurrent doses + SOC chemoradiation

O=C(CBr)N1CC([N+](=O)[O-])([N+](=O)[O-])C1 [RRx-001, 2-bromo-1-(3,3-dinitroazetidin-1-yl) ethan-1-one]
Related anemia (Arm 1): 0% | neutrophil count decrease (Arm 1): 0% | related oral dysesthesia (Arm 1): 0% | related vomiting (Arm 1): 1% | radiation-induced skin injury (Arm 1, p=0.0007 vs control): none | Oral pain (Arm 1, p=0.0095 vs control): 0% | related constipation (Arm 1, p=0.0095 vs control): 0% | reported adverse events (CTCAEv.4): Anemia [1]: 0 (0) | reported adverse events (CTCAEv.4): Blood creatinine increased [1]: 0 (0) | reported adverse events (CTCAEv.4): Blood urea increased [1]: 0 (0) | reported adverse events (CTCAEv.4): Candida infection [1]: 0 (0) | reported adverse events (CTCAEv.4): Constipation [1]: 0 (0) | reported adverse events (CTCAEv.4): Decreased appetite [1]: 0 (0) | reported adverse events (CTCAEv.4): Dermatitis [1]: 0 (0) | reported adverse events (CTCAEv.4): Dry mouth [1]: 0 (0) | reported adverse events (CTCAEv.4): Dysgeusia [1]: 0 (0) | reported adverse events (CTCAEv.4): Dysphagia [1]: 0 (0) | reported adverse events (CTCAEv.4): Glossodynia [1]: 0 (0) | reported adverse events (CTCAEv.4): Laryngeal inflammation [1]: 0 (0) | reported adverse events (CTCAEv.4): Neutrophil count decreased [1]: 0 (0) | reported adverse events (CTCAEv.4): Oral candidiasis [1]: 1 (8.3) | reported adverse events (CTCAEv.4): Oral dysaesthesia [1]: 0 (0) | reported adverse events (CTCAEv.4): Oral dysesthesia [1]: 0 (0) | reported adverse events (CTCAEv.4): Oral pain [1]: 0 (0) | reported adverse events (CTCAEv.4): Platelet count decreased [1]: 0 (0) | reported adverse events (CTCAEv.4): Radiation skin injury [1]: 0 (0) | reported adverse events (CTCAEv.4): Salivary duct inflammation [1]: 0 (0) | reported adverse events (CTCAEv.4): Vomiting [1]: 1 (8.3) | reported adverse events (CTCAEv.4): Weight decreased [1]: 0 (0) | reported adverse events (CTCAEv.4): White blood cell count decreased [1]: 0 (0) | SAE frequency: Anemia [2]: 8.3% | SAE frequency: Atrial flutter [2]: 8.3% | SAE frequency: Decreased appetite [2]: 8.3% | SAE frequency: Dysgeusia [2]: 8.3% | SAE frequency: Febrile neutropenia [2]: 8.3% | SAE frequency: Hypertension [2]: 8.3% | SAE frequency: Hypoacusis [2]: 8.3% | SAE frequency: Hypokalemia [2]: 8.3% | SAE frequency: Lymphocyte count decreased [2]: 33.3% | SAE frequency: Nausea [2]: 8.3% | SAE frequency: Neutrophil count decreased [2]: 8.3% | SAE frequency: Oropharyngeal pain [2]: 16.7% | SAE frequency: Respiratory tract infection [2]: 8.3% | SAE frequency: Vomiting [2]: 8.3% | SAE frequency: Weight decreased [2]: 8.3% | SAE frequency: White blood cell count decreased [2]: 16.7% | Oral pain (Arm 2): 9.1% | Related anemia (Arm 2): 0% | neutrophil count decrease (Arm 2): 0% | radiation-induced skin injury (Arm 2): 18.2% | related constipation (Arm 2): 0% | related oral dysesthesia (Arm 2): 0% | related vomiting (Arm 2): 1% | reported adverse events (CTCAEv.4): Anemia [3]: 0 (0) | reported adverse events (CTCAEv.4): Blood creatinine increased [3]: 2 (18.2) | reported adverse events (CTCAEv.4): Blood urea increased [3]: 0 (0) | reported adverse events (CTCAEv.4): Candida infection [3]: 1 (9.1) | reported adverse events (CTCAEv.4): Constipation [3]: 0 (0) | reported adverse events (CTCAEv.4): Decreased appetite [3]: 0 (0) | reported adverse events (CTCAEv.4): Dermatitis [3]: 0 (0) | reported adverse events (CTCAEv.4): Dry mouth [3]: 0 (0) | reported adverse events (CTCAEv.4): Dysgeusia [3]: 0 (0) | reported adverse events (CTCAEv.4): Dysphagia [3]: 0 (0) | reported adverse events (CTCAEv.4): Glossodynia [3]: 0 (0) | reported adverse events (CTCAEv.4): Laryngeal inflammation [3]: 0 (0) | reported adverse events (CTCAEv.4): Neutrophil count decreased [3]: 0 (0) | reported adverse events (CTCAEv.4): Oral candidiasis [3]: 0 (0) | reported adverse events (CTCAEv.4): Oral dysaesthesia [3]: 0 (0) | reported adverse events (CTCAEv.4): Oral dysesthesia [3]: 0 (0) | reported adverse events (CTCAEv.4): Oral pain [3]: 1 (9.1) | reported adverse events (CTCAEv.4): Platelet count decreased [3]: 0 (0) | reported adverse events (CTCAEv.4): Radiation skin injury [3]: 2 (18.2) | reported adverse events (CTCAEv.4): Salivary duct inflammation [3]: 0 (0) | reported adverse events (CTCAEv.4): Vomiting [3]: 1 (9.1) | reported adverse events (CTCAEv.4): Weight decreased [3]: 0 (0) | reported adverse events (CTCAEv.4): White blood cell count decreased [3]: 0 (0) | SAE frequency: Acute kidney injury [4]: 18.2% | SAE frequency: Alanine aminotransferase increased [4]: 9.1% | SAE frequency: Anemia [4]: 9.1% | SAE frequency: Blood creatinine increased [4]: 9.1% | SAE frequency: Candida infection [4]: 9.1% | SAE frequency: Colitis [4]: 9.1% | SAE frequency: Deafness [4]: 9.1% | SAE frequency: Decreased appetite [4]: 9.1% | SAE frequency: Device related thrombosis [4]: 9.1% | SAE frequency: Dysphagia [4]: 9.1% | SAE frequency: Flank pain [4]: 9.1% | SAE frequency: Hypokalemia [4]: 9.1% | SAE frequency: Hypophosphatasemia [4]: 9.1% | SAE frequency: Laryngeal inflammation [4]: 9.1% | SAE frequency: Leukocytosis [4]: 9.1% | SAE frequency: Lymphocyte count decreased [4]: 72.7% | SAE frequency: Nausea [4]: 9.1% | SAE frequency: Neutrophil count decreased [4]: 27.3% | SAE frequency: Oral pain [4]: 9.1% | SAE frequency: Oropharyngeal pain [4]: 9.1% | SAE frequency: Stomatitis [4]: 9.1% | SAE frequency: Sudden death [4]: 9.1% | SAE frequency: White blood cell count decreased [4]: 36.4% | reported adverse events (CTCAEv.4): Anemia [5]: 4 (30.8) | reported adverse events (CTCAEv.4): Blood creatinine increased [5]: 0 (0) | reported adverse events (CTCAEv.4): Blood urea increased [5]: 0 (0) | reported adverse events (CTCAEv.4): Candida infection [5]: 3 (23.1) | reported adverse events (CTCAEv.4): Constipation [5]: 0 (0) | reported adverse events (CTCAEv.4): Decreased appetite [5]: 4 (30.8) | reported adverse events (CTCAEv.4): Dermatitis [5]: 0 (0) | reported adverse events (CTCAEv.4): Dry mouth [5]: 4 (30.8) | reported adverse events (CTCAEv.4): Dysgeusia [5]: 7 (53.8) | reported adverse events (CTCAEv.4): Dysphagia [5]: 2 (15.4) | reported adverse events (CTCAEv.4): Glossodynia [5]: 0 (0) | reported adverse events (CTCAEv.4): Laryngeal inflammation [5]: 0 (0) | reported adverse events (CTCAEv.4): Neutrophil count decreased [5]: 1 (7.7) | reported adverse events (CTCAEv.4): Oral candidiasis [5]: 1 (7.7) | reported adverse events (CTCAEv.4): Oral dysaesthesia [5]: 0 (0) | reported adverse events (CTCAEv.4): Oral dysesthesia [5]: 0 (0) | reported adverse events (CTCAEv.4): Oral pain [5]: 4 (30.8) | reported adverse events (CTCAEv.4): Platelet count decreased [5]: 3 (23.1) | reported adverse events (CTCAEv.4): Radiation skin injury [5]: 4 (30.8) | reported adverse events (CTCAEv.4): Salivary duct inflammation [5]: 1 (7.7) | reported adverse events (CTCAEv.4): Vomiting [5]: 3 (23.1) | reported adverse events (CTCAEv.4): Weight decreased [5]: 2 (15.4) | reported adverse events (CTCAEv.4): White blood cell count decreased [5]: 1 (7.7) | SAE frequency: Complication associated with device [6]: 7.7% | SAE frequency: Decreased appetite [6]: 15.4% | SAE frequency: Dry Mouth [6]: 7.7% | SAE frequency: Dysphagia [6]: 30.8% | SAE frequency: Embolism [6]: 7.7% | SAE frequency: Gastric Perforation [6]: 7.7% | SAE frequency: Gastrointestinal tube insertion [6]: 15.4% | SAE frequency: Hypocalcemia [6]: 7.7% | SAE frequency: Hypokalemia [6]: 7.7% | SAE frequency: Hypophosphatasemia [6]: 7.7% | SAE frequency: Hypotension [6]: 7.7% | SAE frequency: Lung infection [6]: 7.7% | SAE frequency: Lymphocyte count decreased [6]: 53.8% | SAE frequency: Nausea [6]: 7.7% | SAE frequency: Neutrophil count decreased [6]: 30.8% | SAE frequency: Oral dysaesthesia [6]: 7.7% | SAE frequency: Oral dysesthesia [6]: 7.7% | SAE frequency: Oral pain [6]: 7.7% | SAE frequency: Oropharyngeal pain [6]: 7.7% | SAE frequency: Salivary duct inflammation [6]: 7.7% | SAE frequency: Stomatitis [6]: 7.7% | SAE frequency: Swelling face [6]: 7.7% | SAE frequency: Tumor pain [6]: 7.7% | SAE frequency: Vomiting [6]: 7.7% | SAE frequency: Weight decreased [6]: 7.7% | SAE frequency: White blood cell count decreased [6]: 30.8% | incidence of salivary duct inflammation (Arms 1 and 2, vs control 30%, N.S.): none | incidence of dry mouth (Arms 1 and 2, vs control 60%, p=0.0028): none | incidence of dysphagia (Arms 1 and 2, vs control 70%, p=0.0007): none | SAEs attributed to RRx-001 (PREVLAR): none were attributed to RRx-001 | toxicity attributed to RRx-001 (PREVLAR): discomfort during infusion | weight loss (RRx-001-treated patients vs control 50%, p=0.0095): none | impact on marrow-related AEs (anemia, neutropenia), renal function or the incidence of candidiasis (RRx-001 treatment vs control): did not statistically impact | character of toxicity attributable specifically to RRx-001 (infusion): localized, mild, and transient
